# Test results: US20230393140A1, “BINDING ASSAYS INVOLVING A PLURALITY OF SYNTHETIC COMPOUNDS, TARGETS, AND COUNTER TARGETS” (SRI International, priority 2020, published 2023)
# Numbered stars: 1 amine (or outer) side, 2 acyl side, 3 side chain; on linkers, the order of the positions; unused ones are H or OH. Square brackets hold non-standard residues; d marks the D form. Peptide text beside a SMILES is read from it. * marks the point of attachment. 5FAM = O=C1OC2(c3ccc(O)cc3Oc3cc(O)ccc32)c2ccc(C(=O)*)cc21; NHCH2C6H4(4-CH2CONH2) = NC(=O)Cc1ccc(CN*)cc1; X1 = O=C(Cc1ccc(CN[*:1])cc1)[*:2]
# Biological target: TNFα (Homo sapiens, UniProt P01375)
# Sequence (P01375 77-233 limits assumed): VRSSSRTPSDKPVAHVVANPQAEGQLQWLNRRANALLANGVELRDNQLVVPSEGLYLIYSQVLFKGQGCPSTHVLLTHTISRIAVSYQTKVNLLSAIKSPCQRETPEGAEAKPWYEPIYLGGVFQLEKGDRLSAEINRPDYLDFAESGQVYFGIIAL
# Assay: MST binding affinity of resynthesized NNP hits to TNFα
# Design: purchased R&D Systems, Inc. 210-TA/CF
# Conditions: read-out: KD (nM) [95% conf. int], NNP2 library hit, target TNFα, one-site binding model
# Procedure, shortened: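 Microscale thermophoresis at room temperature, triplicate, 15, 30 and 45 min incubations; targets labeled with RED-NHS 647 dye. Buffers (all 20 mM HEPES pH 7.4 unless noted): IL-6 150 mM KCl, 10 mM MgCl2, 0.1% Pluronic F-127; IL-6R 150 mM NaCl, 10 mM MgCl2, 0.05% Tween-20; TNFα 10 mM HEPES, 150 mM NaCl, 10 mM MgCl2, 0.05% Polysorbate-20; ASGPR adds 2 mM CaCl2, 0.05% Pluronic F-127, 1 mM DTT.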
row,SMILES,Kd [nM]
1,CC(C)C[C@H](NC(=O)[C@@H](CCCNC(=N)N)NC(=O)[C@@H](CCC(=O)O)NC(=O)Cc1ccc(CNC(=O)[C@H](Cc2ccccc2)NC(=O)CNC(=O)[C@@H](C)NC(=O)Cc2ccc(CNC(=O)[C@@H](NC(=O)[C@@H](CCCNC(=N)N)NC(=O)[C@H]3CCCN3C(=O)Cc3ccc(CNC(=O)[C@@H](NC(=O)[C@@H](CCC(=O)O)NC(=O)[C@@H](Cc4ccccc4)NC(=O)Cc4ccc(CNC(=O)[C@H](Cc5ccccc5)NC(=O)[C@@H](C)NC(=O)[C@@H](C)NC(=O)Cc5ccc(CNC(=O)[C@H](CC(C)C)NC(=O)[C@H](NC(=O)[C@@H](CCCCN)NC(=O)c6ccc7c(c6)C(=O)OC76c7ccc(O)cc7Oc7cc(O)ccc76)C(C)C)cc5)cc4)C(C)C)cc3)C(C)C)cc2)cc1)C(=O)NCc1ccc(CC(=O)N2CCC[C@@H]2C(=O)N[C@@H](C(=O)NCC(=O)NCc2ccc(CC(=O)N[C@H](Cc3c[nH]c4ccccc34)C(=O)N[C@H](CCCCN)C(=O)N[C@@H](CC(C)C)C(=O)NCc3ccc(CC(=O)N4CCC[C@@H]4C(=O)N[C@H](C)C(=O)N[C@@H](C)C(=O)NCc4ccc(CC(N)=O)cc4)cc3)cc2)C(C)C)cc1 [TNF-39-10] (5FAM-[dK][dV]L[X1][dA][dA]F[X1][dF][dE]V[X1][dP][dR]V[X1][dA]GF[X1][dE][dR]L[X1][dP][dV]G[X1][dW][dK]L[X1][dP][dA]A-{NHCH2C6H4(4-CH2CONH2)}),38
2,CC(C)C[C@H](NC(=O)[C@@H](CCCCN)NC(=O)[C@@H](Cc1c[nH]c2ccccc12)NC(=O)Cc1ccc(CNC(=O)CNC(=O)[C@H](NC(=O)[C@H]2CCCN2C(=O)Cc2ccc(CNC(=O)[C@H](Cc3ccccc3)NC(=O)[C@@H](CCCNC(=N)N)NC(=O)[C@@H](CC(N)=O)NC(=O)Cc3ccc(CNC(=O)[C@H](Cc4ccccc4)NC(=O)[C@@H](CCCCN)NC(=O)[C@@H](C)NC(=O)Cc4ccc(CNC(=O)[C@H](C)NC(=O)[C@@H](CCCNC(=N)N)NC(=O)[C@@H](Cc5ccccc5)NC(=O)Cc5ccc(CNC(=O)[C@@H](NC(=O)[C@@H](CCC(=O)O)NC(=O)[C@@H](Cc6ccccc6)NC(=O)Cc6ccc(CNC(=O)[C@H](CC(C)C)NC(=O)[C@@H](CCCNC(=N)N)NC(=O)[C@@H](CC(C)C)NC(=O)Cc7ccc(CNC(=O)[C@H](CC(C)C)NC(=O)[C@H](NC(=O)[C@@H](CCCCN)NC(=O)c8ccc9c(c8)C(=O)OC98c9ccc(O)cc9Oc9cc(O)ccc98)C(C)C)cc7)cc6)C(C)C)cc5)cc4)cc3)cc2)C(C)C)cc1)C(=O)NCc1ccc(CC(=O)N[C@H](Cc2ccc(O)cc2)C(=O)N[C@H](CCCNC(=N)N)C(=O)N[C@@H](Cc2ccccc2)C(=O)NCc2ccc(CC(N)=O)cc2)cc1 [TNF-39-11] (5FAM-[dK][dV]L[X1][dL][dR]L[X1][dF][dE]V[X1][dF][dR]A[X1][dA][dK]F[X1][dN][dR]F[X1][dP][dV]G[X1][dW][dK]L[X1][dY][dR]F-{NHCH2C6H4(4-CH2CONH2)}),86
3,CC(C)C[C@H](NC(=O)[C@@H](CCCNC(=N)N)NC(=O)CNC(=O)Cc1ccc(CNC(=O)[C@H](CC(C)C)NC(=O)[C@H](NC(=O)[C@@H](CO)NC(=O)c2ccc3c(c2)C(=O)OC32c3ccc(O)cc3Oc3cc(O)ccc32)C(C)C)cc1)C(=O)NCc1ccc(CC(=O)N[C@H](Cc2ccccc2)C(=O)N[C@H](CCC(=O)O)C(=O)N[C@H](C(=O)NCc2ccc(CC(=O)N[C@H](Cc3ccccc3)C(=O)N[C@H](CCCCN)C(=O)N[C@@H](CC(C)C)C(=O)NCc3ccc(CC(=O)N[C@H](Cc4ccc(O)cc4)C(=O)N[C@H](CCCCN)C(=O)N[C@@H](C)C(=O)NCc4ccc(CC(=O)N[C@H](CCC(=O)O)C(=O)N[C@H](Cc5c[nH]c6ccccc56)C(=O)N[C@@H](C)C(=O)NCc5ccc(CC(=O)N[C@H](C)C(=O)N[C@H](CCCNC(=N)N)C(=O)N[C@@H](CC(C)C)C(=O)NCc6ccc(CC(=O)N[C@H](CCC(=O)O)C(=O)N[C@H](Cc7ccc(O)cc7)C(=O)N[C@@H](Cc7ccccc7)C(=O)NCc7ccc(CC(=O)N[C@H](Cc8ccc(O)cc8)C(=O)N[C@H](CCCNC(=N)N)C(=O)N[C@@H](Cc8ccccc8)C(=O)NCc8ccc(CC(N)=O)cc8)cc7)cc6)cc5)cc4)cc3)cc2)C(C)C)cc1 [TNF-39-13] (5FAM-[dS][dV]L[X1]G[dR]L[X1][dF][dE]V[X1][dF][dK]L[X1][dY][dK]A[X1][dE][dW]A[X1][dA][dR]L[X1][dE][dY]F[X1][dY][dR]F-{NHCH2C6H4(4-CH2CONH2)}),40
4,CC(C)C[C@H](NC(=O)[C@@H](CCCCN)NC(=O)[C@@H](CC(C)C)NC(=O)Cc1ccc(CNC(=O)[C@H](CC(C)C)NC(=O)[C@@H](CCCNC(=N)N)NC(=O)[C@@H](CC(C)C)NC(=O)Cc2ccc(CNC(=O)[C@H](CC(C)C)NC(=O)[C@@H](CC(C)C)NC(=O)[C@@H](Cc3ccc(O)cc3)NC(=O)c3ccc4c(c3)C(=O)OC43c4ccc(O)cc4Oc4cc(O)ccc43)cc2)cc1)C(=O)NCc1ccc(CC(=O)N[C@H](Cc2ccccc2)C(=O)N[C@H](CCCNC(=N)N)C(=O)N[C@@H](C)C(=O)NCc2ccc(CC(=O)N[C@H](C)C(=O)N[C@H](CCCCN)C(=O)N[C@@H](Cc3ccccc3)C(=O)NCc3ccc(CC(=O)N[C@H](Cc4ccccc4)C(=O)N[C@@H](C(=O)N[C@@H](C)C(=O)NCc4ccc(CC(=O)N5CCC[C@@H]5C(=O)N[C@@H](C(=O)NCC(=O)NCc5ccc(CC(=O)N[C@@H](C(=O)N[C@H](Cc6c[nH]cn6)C(=O)N[C@@H](CC(C)C)C(=O)NCc6ccc(CC(=O)N[C@@H](C(=O)N[C@H](CO)C(=O)N[C@H](C(=O)NCc7ccc(CC(N)=O)cc7)C(C)C)[C@H](C)O)cc6)[C@H](C)O)cc5)C(C)C)cc4)[C@H](C)O)cc3)cc2)cc1 [TNF-39-14] (5FAM-[dY][dL]L[X1][dL][dR]L[X1][dL][dK]L[X1][dF][dR]A[X1][dA][dK]F[X1][dF][dT]A[X1][dP][dV]G[X1][dT][dH]L[X1][dT][dS]V-{NHCH2C6H4(4-CH2CONH2)}),36
5,CC(C)C[C@H](NC(=O)[C@@H](CCCNC(=N)N)NC(=O)CNC(=O)Cc1ccc(CNC(=O)[C@H](CC(C)C)NC(=O)[C@H](NC(=O)[C@@H](CCCCN)NC(=O)c2ccc3c(c2)C(=O)OC32c3ccc(O)cc3Oc3cc(O)ccc32)C(C)C)cc1)C(=O)NCc1ccc(CC(=O)N[C@H](Cc2ccccc2)C(=O)N[C@H](CCC(=O)O)C(=O)N[C@H](C(=O)NCc2ccc(CC(=O)N[C@H](Cc3ccccc3)C(=O)N[C@H](CCCNC(=N)N)C(=O)N[C@@H](C)C(=O)NCc3ccc(CC(=O)N[C@H](Cc4c[nH]c5ccccc45)C(=O)N[C@H](CCCNC(=N)N)C(=O)N[C@H](C(=O)NCc4ccc(CC(=O)N[C@H](CCC(=O)O)C(=O)N[C@H](CCCNC(=N)N)C(=O)N[C@@H](CC(C)C)C(=O)NCc5ccc(CC(=O)N[C@H](Cc6c[nH]cn6)C(=O)N[C@H](CCC(=O)O)C(=O)N[C@@H](CC(C)C)C(=O)NCc6ccc(CC(=O)N[C@H](CCCCN)C(=O)N[C@H](Cc7ccccc7)C(=O)N[C@@H](Cc7ccccc7)C(=O)NCc7ccc(CC(=O)N[C@H](Cc8ccc(O)cc8)C(=O)N[C@H](CCCNC(=N)N)C(=O)N[C@@H](Cc8ccccc8)C(=O)NCc8ccc(CC(N)=O)cc8)cc7)cc6)cc5)cc4)C(C)C)cc3)cc2)C(C)C)cc1 [TNF-39-15] (5FAM-[dK][dV]L[X1]G[dR]L[X1][dF][dE]V[X1][dF][dR]A[X1][dW][dR]V[X1][dE][dR]L[X1][dH][dE]L[X1][dK][dF]F[X1][dY][dR]F-{NHCH2C6H4(4-CH2CONH2)}),46
